Measurements published in patent US10206909B2, “3-(1H-pyrrolo[2,3-B]pyridin-2-yl)-1H-pyrazolo[4,3-B]pyridines and therapeutic uses thereof” (Samumed, LLC, priority 2015, dated 2019).

Tests used:
[1] = system: primary human fibroblasts derived from IPF patients (LL29 cells); experiment: Inhibition of the fibrotic process: αSMA staining in TGF-β1 treated fibroblasts; assay type: cell-based; details: Fibroblast; for EC50: 96 h, LL29 cells, TGF-β1 20 ng/mL, 4 days, % αSMA positive cells; for inhibition at 10 µM: given where EC50 >10 μM, LL29, αSMA, read-out: percent inhibition at 10 μM
Excerpt: Representative compounds were screened using primary human fibroblasts (derived from IPF patients) treated with TGF-β1 to determine their ability to inhibit the fibrotic process.
Human Fibroblast Cell Culture: Primary human fibroblasts derived from IPF patients (LL29 cells) [^1Xiaoqiu Liu, et. al., “Fibrotic Lung Fibroblasts Show Blunted Inhibition by cAMP Due to Deficient cAMP Response Element-Binding Protein Phosphorylation”, Journal of Pharmacology and Experimental Therapeutics (2005), 315(2), 678-687; ^2Watts, K. L., et. al., “RhoA signaling modulates cyclin D1 expression in human lung fibroblasts; implications for idiopathic pulmonary fibrosis”, Respiratory Research (2006), 7(1), 88] were obtained from American Type Culture Collection (ATCC) and expanded in F12 medium supplemented with 15% Fetal Bovine Serum and Penicillin/Streptomycin.
Compound Screening: Each compound was dissolved in DMSO as a 10 mM stock and used to prepare compound source plates. Serial dilution (1:2, 11-point dose-response curves from 10 μM to […]) and compound transfer was performed using the ECHO 550 (Labcyte, Sunnyvale, Calif.) into 384-well clear bottom assay plates (Greiner Bio-One) with appropriate DMSO backfill for a final DMSO concentration of 0.1%. LL29 cells are plated at 1,500 cells/well in 80 μL/well F12 medium supplemented with 1% Fetal Bovine Serum. One hour after addition of the cells, TGF-β1 (Peprotech; 20 ng/mL) was added to the plates to induce fibrosis (ref. 1 and 2 above). Wells treated with TGF-β1 and containing DMSO were used as controls. Cells were incubated at 37° C. and 5% CO2 for 4 days. Following incubation for 4 days, SYTOX green nucleic acid stain (Life Technologies [Thermo Fisher Scientific]) was added to the wells at a final concentration of 1 μM and incubated at room temperature for 30 min. Cells were then fixed using 4% formaldehyde (Electron Microscopy Sciences), washed 3 times with PBS followed by blocking and permeabilization using 3% Bovine Serum Albumin (BSA; Sigma) and 0.3% Triton X-100 (Sigma) in PBS. Cells were then stained with antibody specific to α-smooth muscle actin (αSMA; Abcam) (ref. 1 and 2 above) in 3% Bovine Serum Albumin (BSA; Sigma) and 0.3% Triton X-100 (Sigma) in PBS, and incubated overnight at 4° C. Cells were then washed 3 times with PBS, followed by incubation with Alexa Flor-647 conjugated secondary antibody (Life Technologies [Thermo Fisher Scientific]) and DAPI at room temperature for 1 hour. Cells were then washed 3 times with PBS and plates were sealed for imaging. αSMA staining was imaged by excitation at 630 nm and emission at 665 nm and quantified using the Compartmental Analysis program on the CellInsight CX5 (Thermo Scientific). Dead or apoptotic cells were excluded from analysis based on positive SYTOX green staining. % of total cells positive for αSMA were counted in each well and normalized to the average of 11 wells treated with TGF-β1 on the same plate using Dotmatics' Studies Software. The normalized averages (fold change over untreated) of 3 replicate wells for each compound concentration were used to create dose-responses curves and EC50 values were calculated using non-linear regression curve fit in the Dotmatics' Studies Software. For EC50 of >10 μM, the percent inhibition at 10 μM is provided.

[2] = system: primary human mesenchymal stem cells (hMSCs); experiment: Chondrogenesis induction in mesenchymal stem cells (nodule count); assay type: cell-based; details: 144 h, 6 days; for EC50: concentration required to induce 50% levels of chondrogenesis vs TGF-β3, read-out: Conc (nM) of 50% TGF-β3 activity; for Emax: relative to TGF-β3 (10 ng/mL) positive control, read-out: Max. Activity as % TGF-β3 activity
Procedure: Representative compounds were screened using primary human mesenchymal stem cells (hMSCs) to determine their ability to induce chondrogenesis (process by which cartilage is developed).
Human Mesenchymal Stem Cell Culture: Primary human mesenchymal stem cells (hMSCs) were purchased from Lonza (Walkersville, Md.) and expanded in Mesenchymal Stem Cell Growth Media (Lonza). Cells between passage 3 and 6 were used for the experiments.
Compound Screening: Each compound was dissolved in DMSO as a 10 mM stock and used to prepare compound source plates. Serial dilution (1:3, 6-point dose-response curves from 2700 nM to 10 nM) and compound transfer was performed using the ECHO 550 (Labcyte, Sunnyvale, Calif.) into 96-well clear bottom assay plates (Greiner Bio-One) with appropriate DMSO backfill for a final DMSO concentration of 0.03%. hMSCs were plated at 20,000 cells/well in 250 μL/well Incomplete Chondrogenic Induction Medium (Lonza; DMEM, dexamethasone, ascorbate, insulin-transferrin-selenium [ITS supplement], gentamycin-amphotericin [GA-1000], sodium pyruvate, proline and L-glutamine). TGF-β3 (10 ng/mL) was used as a positive control for differentiation while negative control wells were treated with 75 nL DMSO for normalization and calculating EC50 values. Cells were incubated at 37° C. and 5% CO2 for 6 days. To image chondrogenic nodules, the cells were fixed using 4% formaldehyde (Electron Microscopy Sciences), and stained with 2 μg/mL Rhodamine B (Sigma-Aldrich) and 20 μM Nile Red (Sigma-Aldrich) [Johnson K., et. al, A Stem Cell-Based Approach to Cartilage Repair, Science, (2012). 336(6082), 717-721]. The nodules imaged (4 images per well at 4× magnification) by excitation at 531 nm and emission at 625 nm and quantified using the CellInsight CX5 (Thermo Scientific). Number of nodules in each well was normalized to the average of 3 DMSO treated wells on the same plate using Excel (Microsoft Inc.). The normalized averages (fold change over DMSO) of 3 replicate wells for each compound concentration were calculated. Due to solubility limitations of some of the compounds, curve fitting was incomplete leading to inaccurate EC50 determinations.
Using TGF-β3 as a positive control, the concentration of representative compounds required to induce 50% levels of chondrogenesis is reported. In addition, the maximum activity of each compound and the respective dose that each compound reached maximum chondrogenesis activity is reported.

Structure (SMILES) | EC50 [1] [nM] | inhibition at 10 µM [1] [%] | EC50 [2] [nM] | Emax [2] [%]
Fc1cccc(-c2ccnc3[nH]c(-c4n[nH]c5ccc(-c6cncc(CN7CCCCC7)c6)nc45)cc23)c1 [Compound 15, 3-(4-(3-Fluorophenyl)-1H-pyrrolo[2,3-b]pyridin-2-yl)-5-(5-(piperidin-1-ylmethyl)pyridin-3-yl)-1H-pyrazolo[4,3-b]pyridine] | > 10000 | 10.3 | 900 | 62
CN(C)Cc1cncc(-c2ccc3[nH]nc(-c4cc5c(-c6ccccc6F)ccnc5[nH]4)c3n2)c1 [Compound 69, 1-(5-(3-(4-(2-Fluorophenyl)-1H-pyrrolo[2,3-b]pyridin-2-yl)-1H-pyrazolo [4,3-b]pyridin-5-yl)pyridin-3-yl)-N,N-dimethylmethanamine] | 2000 |  |  | 44
c1cncc(-c2ccc3[nH]nc(-c4cc5c(-c6cccnc6)ccnc5[nH]4)c3n2)c1 [Compound 88, 5-(Pyridin-3-yl)-3-(4-(pyridin-3-yl)-1H-pyrrolo[2,3-b]pyridin-2-yl)-1H-pyrazolo[4,3-b]pyridine] | > 10000 | 25.3 | 100 | 59
CN(C)c1cncc(-c2ccc3[nH]nc(-c4cc5c(-c6cccnc6)ccnc5[nH]4)c3n2)c1 [Compound 91, N,N-Dimethyl-5-(3-(4-(pyridin-3-yl)-1H-pyrrolo[2,3-b]pyridin-2-yl)-1H-pyrazolo[4,3-b]pyridin-5-yl)pyridin-3-amine] | 2190 |  | 30 | 71
CC(C)Nc1cncc(-c2ccc3[nH]nc(-c4cc5c(-c6cccnc6)ccnc5[nH]4)c3n2)c1 [Compound 96, N-Isopropyl-5-(3-(4-(pyridin-3-yl)-1H-pyrrolo[2,3-b]pyridin-2-yl)-1H-pyrazolo[4,3-b]pyridin-5-yl)pyridin-3-amine] | > 10000 | 0 |  | 47
FC1(F)CCN(Cc2cncc(-c3ccc4[nH]nc(-c5cc6c(-c7cccnc7)ccnc6[nH]5)c4n3)c2)C1 [Compound 110, 5-(5-((3,3-Difluoropyrrolidin-1-yl)methyl)pyridin-3-yl)-3-(4-(pyridin-3-yl)-1H-pyrrolo[2,3-b]pyridin-2-yl)-1H-pyrazolo[4,3-b]pyridine] | 213 |  | 300 | 80
Nc1cncc(-c2ccc3[nH]nc(-c4cc5c(-c6ccncc6)ccnc5[nH]4)c3n2)c1 [Compound 115, 5-(3-(4-(Pyridin-4-yl)-1H-pyrrolo[2,3-b]pyridin-2-yl)-1H-pyrazolo[4,3-b]pyridin-5-yl)pyridin-3-amine] | > 10000 | 28.8 |  | 27
Cc1ccncc1-c1ccc2[nH]nc(-c3cc4c(-c5ccncc5)ccnc4[nH]3)c2n1 [Compound 117, 5-(4-Methylpyridin-3-yl)-3-(4-(pyridin-4-yl)-1H-pyrrolo[2,3-b]pyridin-2-yl)-1H-pyrazolo[4,3-b]pyridine] | 600 |  | 300 | 56
c1cc(-c2ccnc3[nH]c(-c4n[nH]c5ccc(-c6cncc(CN7CCCCC7)c6)nc45)cc23)ccn1 [Compound 127, 5-(5-(Piperidin-1-ylmethyl)pyridin-3-yl)-3-(4-(pyridin-4-yl)-1H-pyrrolo[2,3-b]pyridin-2-yl)-1H-pyrazolo[4,3-b]pyridine] | > 10000 | 0 | 2700 | 55
c1cc(-c2ccnc3[nH]c(-c4n[nH]c5ccc(-c6cncc(CNCC7CCCC7)c6)nc45)cc23)ccn1 [Compound 137, 1-Cyclopentyl-N-((5-(3-(4-(pyridin-4-yl)-1H-pyrrolo[2,3-b]pyridin-2-yl)-1H-pyrazolo[4,3-b]pyridin-5-yl)pyridin-3-yl)methyl)methanamine] | > 10000 | 23.8 | 100 | 67
Cc1ccncc1-c1ccc2[nH]nc(-c3cc4c(N5CCCCC5)ccnc4[nH]3)c2n1 [Compound 173, 5-(4-Methylpyridin-3-yl)-3-(4-(piperidin-1-yl)-1H-pyrrolo[2,3-b]pyridin-2-yl)-1H-pyrazolo[4,3-b]pyridine] | > 10000 | 10.6 | 900 | 101
CN(C)Cc1cncc(-c2ccc3[nH]nc(-c4cc5c(N6CCCCC6)ccnc5[nH]4)c3n2)c1 [Compound 181, N,N-Dimethyl-1-(5-(3-(4-(piperidin-1-yl)-1H-pyrrolo[2,3-b]pyridin-2-yl)-1H-pyrazolo[4,3-b]pyridin-5-yl)pyridin-3-yl)methanamine] | 7780 |  | 10 | 82
CCCCC(=O)Nc1cncc(-c2ccc3[nH]nc(-c4cc5c(N6CCCCC6)ccnc5[nH]4)c3n2)c1 [Compound 187, N-(5-(3-(4-(Piperidin-1-yl)-1H-pyrrolo[2,3-b]pyridin-2-yl)-1H-pyrazolo[4,3-b]pyridin-5-yl)pyridin-3-yl)pentanamide] | 4880 |  | 10 | 92
FC1(F)CCN(Cc2cncc(-c3ccc4[nH]nc(-c5cc6c(N7CCCCC7)ccnc6[nH]5)c4n3)c2)C1 [Compound 194, 5-(5-((3,3-Difluoropyrrolidin-1-yl)methyl)pyridin-3-yl)-3-(4-(piperidin-1-yl)-1H-pyrrolo[2,3-b]pyridin-2-yl)-1H-pyrazolo[4,3-b]pyridine] | 2550 |  |  | 38
c1ncc(-c2ccc3[nH]nc(-c4cc5c(N6CCCCC6)ccnc5[nH]4)c3n2)cn1 [Compound 195, 3-(4-(Piperidin-1-yl)-1H-pyrrolo[2,3-b]pyridin-2-yl)-5-(pyrimidin-5-yl)-1H-pyrazolo[4,3-b]pyridine] | 2040 |  | 10 | 100
CC(C)CC(=O)Nc1cncc(-c2ccc3[nH]nc(-c4cc5c(N6CCN(C)CC6)ccnc5[nH]4)c3n2)c1 [Compound 226, 3-Methyl-N-(5-(3-(4-(4-methylpiperazin-1-yl)-1H-pyrrolo[2,3-b]pyridin-2-yl)-1H-pyrazolo[4,3-b]pyridin-5-yl)pyridin-3-yl)butanamide] | 1760 |  |  | 49
